Laboratory results reported in patent publication US9717703B2, “Emulsion and emulsion preconcentrate compositions comprising omega-3 fatty acids and uses thereof are disclosed” (GLAXOSMITHKLINE LLC, priority 2009, dated 2017).

Assay: Clinical study Part B, two-week repeat dose plasma EPA/DHA pharmacokinetics
Details: human, in vivo
From the text: Part A comprised single dose administration of emulsion pre-concentrate capsules or liquid emulsion equivalent to 1.68 g LOVAZA®. Part B comprised two-week, repeat dosing of selected doses of the emulsion pre-concentrate capsules. […] Part B was a single blind, randomized, parallel group, placebo controlled study consisting of a 2-week repeat dose period with 3 dose levels of the K85EE emulsion pre-concentrate capsules, and one dose of LOVAZA®. Within each cohort, at least eight healthy subjects were randomized to an active treatment group, and at least 2 subjects were randomized to a matching placebo (1000 mg capsule containing corn oil, NF 994 mg and D-Alpha Tocopherol, USP 6 mg). Data from placebo subjects was pooled for analysis. Subjects, checked into the clinical research unit, participated in a test meal on Day -2 and had 24-hr baseline EPA/DHA profiles on Day -1 and Day 1. Subjects were released from the clinic on Day 2, and returned for daily dosing on Days 3 through 12 (with a brief outpatient visit on Day 6). Subjects checked into the clinic again on the evening of Day 12, and on Day 13 they had 24-hr EPA/DHA profiles collected. Subjects were released from the clinic on Day 14, following procedures including a test meal and triglyceride sampling. In Part B, subjects were assigned to either a) one of 3 dose levels of the K85EE emulsion pre-concentrate capsules, b) LOVAZA®, or c) to placebo to match one of the 4 active treatments. Subjects were blinded as to whether they were receiving an active treatment or the corresponding placebo. The randomization ratio for active:placebo within each cohort was 4:1. Part B treatments are summarized below: The K85EE emulsion pre-concentrate capsules and LOVAZA® were administered as capsules, once daily in the manner described for Part A, and the placebos were administered as for the corresponding active treatment. Subjects were required to fast only on PK sampling days. Plasma EPA and DHA concentrations were determined according to the above method.

With omega-3-acid ethyl esters [LOVAZA] the “Free DHA AUC (0-24 h) Geometric LS Mean, Ref. (Day 1)” value was 5.61 µg·h/mL, the “Free DHA AUC (0-24 h) Geometric LS Mean, Test (Day 13)” value was 9.40 µg·h/mL and the “Free DHA Cmax Geometric LS Mean, Ref. (Day 1)” value was 430 ng/mL. For the same substance, the “Free DHA Cmax Geometric LS Mean, Test (Day 13)” value was 790 ng/mL, the “Free EPA AUC (0-24 h) Geometric LS Mean, Ref. (Day 1)” value was 1.66 µg·h/mL and the “Free EPA AUC (0-24 h) Geometric LS Mean, Test (Day 13)” value was 3.22 µg·h/mL. The “Free EPA Cmax Geometric LS Mean, Ref. (Day 1)” value was 90 ng/mL, the “Free EPA Cmax Geometric LS Mean, Test (Day 13)” value was 200 ng/mL and the “Total DHA AUC (0-24 h) Geometric LS Mean, Ref. (Day 1)” value was 810.21 µg·h/mL. For the same substance, the “Total DHA AUC (0-24 h) Geometric LS Mean, Test (Day 13)” value was 1356.51 µg·h/mL, the “Total DHA Cmax Geometric LS Mean, Ref. (Day 1)” value was 38290 ng/mL and the “Total DHA Cmax Geometric LS Mean, Test (Day 13)” value was 65370 ng/mL. The “Total EPA AUC (0-24 h) Geometric LS Mean, Ref. (Day 1)” value was 251.67 µg·h/mL, the “Total EPA AUC (0-24 h) Geometric LS Mean, Test (Day 13)” value was 611.34 µg·h/mL and the “Total EPA Cmax Geometric LS Mean, Ref. (Day 1)” value was 12860 ng/mL. The “Total EPA Cmax Geometric LS Mean, Test (Day 13)” value was 30840 ng/mL.
